# Laboratory results as given in patent US11547667B2 (priority 2007, dated 2023).
# System: CD4 T cells from OT-II donor mice
# Experiment: In vivo CD4 T cell activation, CFSE dilution of transferred OT-II T cells
# Parameters: species or system C57BL6J mice
# Details: footpad injection, with CpG adjuvant, three days after immunization
# Description: Subsequently, immunization experiments were performed by injecting one footpad with free OVA or with nanoparticles composed of either PLA or PLGA that encapsulated an equivalent amount of OVA as a model antigen. All antigenic mixtures also contained CpG (a TLR9 agonist) as an adjuvant. The animals were injected, sacrificed three days after immunization, and OT-II T cell activation was assessed by flow cytometry in single-cell suspensions from different tissues.
# By contrast, activated T cells divide and in the process split the fluorescent dye evenly between the two daughter cells resulting in an incremental decrease in fluorescence intensity upon each successive division. Thus, the greater the left shift in CFSE, fluorescence the stronger T cells were activated.
substance,measurement,value
"free OVA: free chicken ovalbumin (OVA), mixed with CpG adjuvant","local T cell proliferation in distal lymphoid tissues (brachial lymph node, spleen)",only undivided cells or cells with very low CFSE content
